# Where a SMILES comes first, the peptide text is derived from it. Bridges are numbered along the chain shown (N, C = ends).
# Assays:
# E. coli BL21 = format: cell-based, Escherichia coli; conditions: BL21, 24 h
# Method: (§1) The […] antimicrobial activity of the recombinant C-15867 peptide was evaluated against three different bacterial strains: E. coli BL21, Staphylococcus aureus NCTC 12493 and Staphylococcus. epidermidis ATCC 12228. The minimum inhibitory concentration (MIC) was determined as the lowest concentration showing no visible growth after 24 h of incubation at 37 °C.
# (§2) Figure 5 Determination of C-15867 minimum inhibitory concentration (MIC). All bacteria cells were grown in the presence of serial dilution of peptide from 248 µM to 0.56 µM and incubated at 37 °C for 24 h. The error bars on the graphs stand for the standard deviation from the mean of three experiments.
# (§3) The procedure was performed using medium as negative control and cells approximately 5 × 10^5 CFU/mL as positive control to monitor the normal growth of bacteria.
# [1] = system: Staphylococcus aureus NCTC 12493; format: cell-based; conditions: NCTC 12493, 24 h
# Method: as §1, §2, §3
# [2] = system: Staphylococcus epidermidis ATCC 12228; assay: Minimum inhibitory concentration (MIC) determination; format: cell-based; conditions: serial dilution of peptide 248 to 0.5 μM, 24 h at 37 °C
# Method: as §1, §2, §3
# [3] = system: E. coli BL21 membrane permeability; assay: Crystal violet assay of membrane permeability; format: cell-based, Escherichia coli; conditions: sub-mic concentration (9 µM) of peptide, LB broth, 37 °C, OD590 of supernatant
# Method: With C-15867 being a defensin-like AMP, we investigated the effect of the peptide, if any, on E. coli BL21 membrane permeability using the crystal violet assay. Bacterial cells were grown in the presence of a sub-mic concentration (9 µM) of the peptide and the uptake of crystal violet was monitored at different times of incubation.
# Figure 6 Effect of C-15867 on E. coli BL21 membrane permeability. The uptake of crystal violet was calculated in the presence of sub-mic concentration (9 µM) of the peptide.
# The alteration in membrane permeability was detected by crystal violet assay. Bacterial cells were grown in LB broth at 37 °C in the presence of […] peptide for 1 and 3 h. Subsequently, the cells were harvested at 9300× g for 5 min and then the cells were resuspended in 1× PBS containing 10 µg/mL of crystal violet. The cell suspension was incubated for 10 min at 37 °C and then centrifuged at 13,400× g for 15 min and the OD590 of the supernatant was measured at the spectrophotometer. Control samples were prepared similarly without treatment. The OD value of the crystal violet solution, which was originally used in the assay, was taken and it was considered as 100%. The percentage of crystal violet uptake of all the samples was quantified according to the following formula: OD value of the sample/OD value of the crystal violet solution 100×.
# E. coli Bl21 cells = assay: Scanning electron microscopy (SEM) of cell morphology; format: cell-based, Escherichia coli; conditions: sub-mic concentration (9 µM) of peptide, 3 h incubation at 37 °C, compared with untreated cells
# Method: The effect of C-15867 on the morphology of E. coli BL21 cells was also assessed by SEM microscopy analyses. Bacterial cells were treated with a sub-mic concentration (9 µM) of the antimicrobial peptide and SEM analyses were carried out after 3 h of incubation in comparison with untreated cells.
# The cell wall and the cell surface were rough gradually forming pores with subsequent leakage of cytoplasmic material confirming the disrupting effect of the antimicrobial peptide on the bacterial membrane.
# Figure 7 Scanning electron microscopy of E. coli BL2_1 cells following 3 h treatment with a sub-mic concentration (9 µM) of the antimicrobial peptide C-15867 (d–f) in comparison with untreated cells (a–c). The scale bar was 2 µm in panel (a), 500nm in panel (b,c) and 1µm in panel (d–f).
# E. coli BL21 cells were grown in the absence and in the presence of native C15867 peptide at 37 °C for 3 h. Samples from each culture were fixed in 2.5% glutaraldehyde solution for 16 h. Following the incubation, the bacterial cells were washed with 0.1 M PBS (pH 7.2) and dehydrated in a series of ethanol solutions ranging from 30 to 100%, followed by three washes with 100% ethanol. E. coli cells were deposited onto glass substrate first sputter coated with a thin layer of Au-Pd alloy (Denton Vacuum Desk V Magnetron Sputtering) to allow subsequent morphological characterization using a FEI Nova NanoSEM 450.
compound,measurement,setting,value
"CC[C@H](C)[C@@H]1NC(=O)[C@@H]2CSSC[C@@H](C(=O)N[C@@H](CCCNC(=N)N)C(=O)O)NC(=O)[C@H](C(C)C)NC(=O)[C@@H]3CSSC[C@H](NC(=O)[C@@H]4CCCN4C(=O)[C@H](C)NC(=O)[C@H](CCCNC(=N)N)NC(=O)CNC(=O)[C@H](Cc4ccccc4)NC(=O)[C@H](Cc4ccccc4)NC(=O)[C@@H]4CCCN4C(=O)[C@H](CCCCN)NC(=O)[C@H](CC(C)C)NC(=O)[C@H](CC(C)C)NC(=O)[C@H](CC(=O)O)NC(=O)[C@@H](NC(=O)[C@@H](NC(=O)[C@@H](N)C(C)C)[C@@H](C)O)CSSC[C@H](NC(=O)[C@H](Cc4ccccc4)NC(=O)CNC(=O)[C@H]([C@@H](C)O)NC(=O)[C@H](CCCNC(=N)N)NC(=O)[C@H](CCCCN)NC(=O)[C@H](CCCCN)NC(=O)[C@H](Cc4ccccc4)NC(=O)[C@H](CCCNC(=N)N)NC(=O)[C@H](CC(C)C)NC1=O)C(=O)N[C@@H](CO)C(=O)N[C@@H](CCCNC(=N)N)C(=O)N[C@@H](CCC(N)=O)C(=O)N[C@@H](CC(N)=O)C(=O)N[C@@H](C(C)C)C(=O)N3)C(=O)N[C@@H](CCSC)C(=O)N[C@@H](CCSC)C(=O)N[C@@H](Cc1c[nH]cn1)C(=O)N2 [C-15867] (H-VTCDLLKPFFGRAPCMMHCILRFKKRTGFCSRQNVCVCR-OH; disulfide 3-30, 15-36, 19-38; N-terminus and C-terminus assumed)",minimum inhibitory concentration (MIC),E. coli BL21,36 µM
same,minimum inhibitory concentration (MIC),[1],36 µM
same,antimicrobial effect (in words),[2],strong antimicrobial effect
same,increase in the uptake of crystal violet,[3]; 1 h of treatment,22%
same,increase in the uptake of crystal violet,[3]; 3 h of treatment,34%
same,cell morphology by SEM (in words),E. coli Bl21 cells,severe morphological changes
